# Data taken from patent publication US20250388573A1, “FUSED BICYCLIC EGFR INHIBITORS AND METHODS OF USE THEREOF” (Dana-Farber Cancer Institute, Inc., priority 2022, published 2025).
# How the values were obtained:
# [1] = test system: EGFR mutant L858R/T790M Ba/F3 cells; test: Ba/F3 cell proliferation (Cell Titer Glo), L858R/T790M; assay type: cell-based, murine; details: Mus musculus, BaF3, 72 hours, read-out: LRTM BaF3 cell IC50
# From the text: (§1) The EGFR mutant L858R and L858R/T790M Ba/F3 cells have been previously described (Zhou, W., et al. Nature 462, 2009, 1070-1074). All cell lines were maintained in RPMI 1640 (Cellgro; Mediatech Inc., Herndon, CA) supplemented with 10% FBS, 100 units/mL penicillin, 100 units/mL streptomycin. The EGFR 1941R mutation was introduced via site directed mutagenesis using the Quick Change Site-Directed Mutagenesis kit (Stratagene; La Jolla, CA) according to the manufacturer's instructions. All constructs were confirmed by DNA sequencing. The constructs were shuttled into the retroviral vector JP1540 using the Cre-recombination system (Agilent Technologies, Santa Clara, CA). Ba/F3 cells were then infected with retrovirus per standard protocols, as described previously (Zhou, et al, Nature 2009). Stable clones were obtained by selection in puromycin (2 μg/ml).
# (§2) Growth and inhibition of growth was assessed by the Cell Titer Glo assay (Promega, Madison, WI) and was performed according to the manufacturer's instructions. The Cell Titer Glo assay is a luminescence-based method used to determine the number of viable cells based on quantitation of the ATP present, which is directly proportional to the amount of metabolically active cells present. Ba/F3 cells of different EGFR genotypes were exposed to the compounds disclosed herein for 72 hours and the number of cells used per experiment was determined empirically as has been previously established (Zhou, et al., Nature 2009). All experimental points were set up in triplicates in 384-well plates and all experiments were repeated at least three times. […] The curves were fitted using a non-linear regression model with a sigmoidal dose response.
# [2] = molecular target: EGFR L858R (Homo sapiens (Human), UniProt P00533, L858R); test: HTRF-based EGFR biochemical assay, L858R; details: L858R 0.1 nM enzyme, 100 μM ATP; read-out: LR enzyme IC50
# Experimental: (§3) EGFR biochemical activity measurements were carried out using the homogeneous time-resolved fluorescence (HTRF) assay (Cisbio). Inhibitors and DMSO normalizations were first dispensed to empty black low-volume 384-well plates (Corning) with D300 digital liquid dispenser (HP). All reactions were carried out at room temperature and solutions were added to plates with a Multidrop Combi Reagent Dispenser (ThermoFisher). The reaction mixture (10 µL final volume) contained 1 μM tyrosine kinase peptide-biotin substrate and mutant EGFR in a reaction buffer (50 mM HEPES pH 7.0, 5 mM MgCl2, 1 mM MnCl2, 0.01% BSA, 2 mM TCEP, 0.1 mM NaVO4). Enzyme concentrations were adjusted to accommodate varying kinase activities (L858R 0.1 nM, L858R/T790M 0.02 nM). Enzyme reaction solution (2× concentrations, 5 μL) was added to 384-well plates containing compounds and incubated for 30 mins. Enzyme reactions were initiated with the addition of 5 μL of ATP to a final concentration of 100 μM and reacted for 20 mins. Reactions were quenched with the addition of 10 μL of phospho-tyrosine antibody-Europium (III) cryptate (1-to-180 volume ratio) and Streptavidin-XL665 (46.7 nM) in EDTA-containing detection buffer, then incubated at room temperature for 1 hour, and read with a PHERAstar plate reader (excitation=337 nm, emission=620 nm and 665 nm). IC50 values were determined by inhibition curves (11-point curves from 1.0 μM to 0.130 nM or 23-point curves from 1.0 μM to 0.130 μM) in triplicate with non-linear least squares fit in GraphPad Prism 7.0d.
# [3] = molecular target: EGFR L858R/T790M (Homo sapiens (Human), UniProt P00533, L858R/T790M); test: HTRF-based EGFR biochemical assay, L858R/T790M; details: L858R/T790M 0.02 nM enzyme, 100 μM ATP; read-out: LRTM enzyme IC50
# Experimental: as §3
# [4] = test system: EGFR mutant L858R Ba/F3 cells; test: Ba/F3 cell proliferation (Cell Titer Glo), L858R; assay type: cell-based, murine; details: Mus musculus, BaF3, 72 hours, read-out: LR BaF3 cell IC50
# From the text: as §1, §2
# Chain of EGFR L858R (P00533 25-1210 L858R): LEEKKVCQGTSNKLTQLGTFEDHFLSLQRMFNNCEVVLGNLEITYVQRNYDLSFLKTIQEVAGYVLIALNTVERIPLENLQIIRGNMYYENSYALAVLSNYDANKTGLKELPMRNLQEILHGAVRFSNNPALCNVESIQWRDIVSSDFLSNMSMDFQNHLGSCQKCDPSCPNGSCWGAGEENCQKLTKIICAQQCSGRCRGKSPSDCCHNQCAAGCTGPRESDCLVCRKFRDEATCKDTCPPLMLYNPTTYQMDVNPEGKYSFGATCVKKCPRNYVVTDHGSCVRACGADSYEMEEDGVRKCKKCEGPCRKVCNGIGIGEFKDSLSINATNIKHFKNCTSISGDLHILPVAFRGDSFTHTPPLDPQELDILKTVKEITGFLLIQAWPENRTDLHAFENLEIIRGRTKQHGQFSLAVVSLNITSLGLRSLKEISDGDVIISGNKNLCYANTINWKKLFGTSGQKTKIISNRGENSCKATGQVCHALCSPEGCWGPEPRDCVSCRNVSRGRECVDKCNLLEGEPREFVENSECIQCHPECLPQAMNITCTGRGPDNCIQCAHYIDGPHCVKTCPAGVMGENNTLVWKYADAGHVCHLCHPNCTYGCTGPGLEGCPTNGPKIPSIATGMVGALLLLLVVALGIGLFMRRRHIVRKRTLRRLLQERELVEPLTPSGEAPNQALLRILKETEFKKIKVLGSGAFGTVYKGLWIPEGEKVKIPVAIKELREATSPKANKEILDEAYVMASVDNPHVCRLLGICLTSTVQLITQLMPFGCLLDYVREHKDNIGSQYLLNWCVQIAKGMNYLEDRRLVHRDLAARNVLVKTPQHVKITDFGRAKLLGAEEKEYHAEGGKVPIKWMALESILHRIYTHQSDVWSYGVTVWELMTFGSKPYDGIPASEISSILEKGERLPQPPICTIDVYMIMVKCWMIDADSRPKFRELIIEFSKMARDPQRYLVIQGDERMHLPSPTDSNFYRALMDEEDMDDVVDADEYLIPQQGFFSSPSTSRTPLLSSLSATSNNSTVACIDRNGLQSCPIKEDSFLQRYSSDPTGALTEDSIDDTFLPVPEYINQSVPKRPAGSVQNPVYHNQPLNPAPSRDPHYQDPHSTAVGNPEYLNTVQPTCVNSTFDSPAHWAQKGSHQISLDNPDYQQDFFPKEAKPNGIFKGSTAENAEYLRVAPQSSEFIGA
# Chain of EGFR L858R/T790M (P00533 25-1210 T790M/L858R): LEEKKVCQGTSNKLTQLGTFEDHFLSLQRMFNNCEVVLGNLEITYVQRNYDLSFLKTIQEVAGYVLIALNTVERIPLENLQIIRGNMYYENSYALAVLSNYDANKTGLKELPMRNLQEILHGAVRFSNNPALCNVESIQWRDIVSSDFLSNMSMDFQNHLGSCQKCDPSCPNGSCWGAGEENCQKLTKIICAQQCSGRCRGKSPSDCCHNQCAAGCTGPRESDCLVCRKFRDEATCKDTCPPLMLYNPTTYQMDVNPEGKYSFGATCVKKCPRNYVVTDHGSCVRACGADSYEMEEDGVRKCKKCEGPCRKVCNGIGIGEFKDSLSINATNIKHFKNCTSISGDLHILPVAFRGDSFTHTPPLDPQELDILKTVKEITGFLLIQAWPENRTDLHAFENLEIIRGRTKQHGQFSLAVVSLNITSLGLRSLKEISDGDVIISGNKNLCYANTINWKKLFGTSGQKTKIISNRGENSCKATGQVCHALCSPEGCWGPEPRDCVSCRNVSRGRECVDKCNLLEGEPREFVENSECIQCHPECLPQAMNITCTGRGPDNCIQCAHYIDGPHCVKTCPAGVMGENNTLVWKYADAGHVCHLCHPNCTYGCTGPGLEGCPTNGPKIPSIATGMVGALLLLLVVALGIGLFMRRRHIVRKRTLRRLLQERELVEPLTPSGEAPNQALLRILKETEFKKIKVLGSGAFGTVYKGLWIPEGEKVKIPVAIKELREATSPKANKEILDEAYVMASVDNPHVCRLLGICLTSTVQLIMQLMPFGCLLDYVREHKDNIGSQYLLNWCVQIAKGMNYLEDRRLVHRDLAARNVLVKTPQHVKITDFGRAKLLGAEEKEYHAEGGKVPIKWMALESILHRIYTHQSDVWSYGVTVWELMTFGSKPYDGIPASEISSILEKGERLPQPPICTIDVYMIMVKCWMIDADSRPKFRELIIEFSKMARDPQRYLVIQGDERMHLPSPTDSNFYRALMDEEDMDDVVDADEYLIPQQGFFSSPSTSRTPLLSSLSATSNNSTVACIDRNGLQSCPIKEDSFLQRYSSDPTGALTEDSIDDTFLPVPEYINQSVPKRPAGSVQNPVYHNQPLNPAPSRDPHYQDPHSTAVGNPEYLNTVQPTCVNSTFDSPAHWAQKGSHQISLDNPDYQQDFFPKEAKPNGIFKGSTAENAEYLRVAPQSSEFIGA
IC50 [1],IC50 [2],IC50 [3],IC50 [4],SMILES
510 nM,2.8 nM,0.4 nM,1480 nM,"CN1CCC(c2ccc(-c3ccc4c(c3)C(=O)N(C(C(=O)Nc3nccs3)c3cccc(F)c3)CO4)cc2)CC1 (stereo not drawn) [Compound 001, 2-(3-Fluorophenyl)-2-(6-(4-(1-methylpiperidin-4-yl)phenyl)-4-oxo-2H-benzo[e][1,3]oxazin-3 (4H)-yl)-N-(thiazol-2-yl)acetamide]"
–,23 nM,4 nM,–,"CN1CCN(c2ccc(-c3ccc4c(c3)C(=O)N(C(C(=O)Nc3nccs3)c3cccc(F)c3)CO4)cc2)CC1 (stereo not drawn) [Compound 002, 2-(3-Fluorophenyl)-2-(6-(4-(4-methylpiperazin-1-yl)phenyl)-4-oxo-2H-benzo[e][1,3]oxazin-3 (4H)-yl)-N-(thiazol-2-yl)acetamide]"
460 nM,23 nM,0.8 nM,1250 nM,"CN1CCC(c2ccc(-c3ccc4c(c3)C(=O)N(C(C(=O)Nc3nccs3)c3ccccc3)CO4)cc2)CC1 (stereo not drawn) [Compound 003, 2-(6-(4-(1-Methylpiperidin-4-yl)phenyl)-4-oxo-2H-benzo[e][1,3]oxazin-3(4H)-yl)-2-phenyl-N-(thiazol-2-yl)acetamide]"
–,> 100 nM,21 nM,–,"CN1CCC(c2ccc(-c3ccc4c(c3)OCN(C(C(=O)Nc3nccs3)c3ccccc3)C4=O)cc2)CC1 (stereo not drawn) [Compound 004, 2-(7-(4-(1-Methylpiperidin-4-yl)phenyl)-4-oxo-2H-benzo[e][1,3]oxazin-3(4H)-yl)-2-phenyl-N-(thiazol-2-yl)acetamide]"
460 nM,3.7 nM,1 nM,1040 nM,"CN1CCC(c2ccc(-c3ccc4c(c3F)C(=O)N(C(C(=O)Nc3nccs3)c3ccccc3)CO4)cc2)CC1 (stereo not drawn) [Compound 005, 2-(5-Fluoro-6-(4-(1-methylpiperidin-4-yl)phenyl)-4-oxo-2H-benzo[e][1,3]oxazin-3(4H)-yl)-2-phenyl-N-(thiazol-2-yl)acetamide]"
880 nM,3.6 nM,0.9 nM,1540 nM,"CN1CCC(c2ccc(-c3ccc4c(c3)OCN(C(c3nc5ccccc5[nH]3)c3cc(F)ccc3O)C4=O)cc2)CC1 (stereo not drawn) [Compound 006, 3-((1H-Benzo[d]imidazol-2-yl) (5-fluoro-2-hydroxyphenyl)methyl)-7-(4-(1-methylpiperidin-4-yl)phenyl)-2,3-dihydro-4H-benzo[e][1,3]oxazin-4-one]"
220 nM,1.9 nM,0.7 nM,470 nM,"CN1CCC(c2ccc(-c3ccc4c(c3)C(=O)N(C(c3nc5ccccc5[nH]3)c3cc(F)ccc3O)CO4)cc2)CC1 (stereo not drawn) [Compound 007, 3-((1H-Benzo[d]imidazol-2-yl) (5-fluoro-2-hydroxyphenyl)methyl)-6-(4-(1-methylpiperidin-4-yl)phenyl)-2,3-dihydro-4H-benzo[e][1,3]oxazin-4-one 2,2,2-trifluoroacetate]"
